The record followed here is the OligoGym collection.

This series has as its target ATXN2. Description: mouse, dose not given. The note with it: ASO.

HELM strings list units from the 5' end as sugar, base in round brackets, then linkage (d deoxyribose, r ribose, m 2'-O-methyl, p phosphodiester). Strings are as the collection lists them; they lack the last nucleoside at the 3' end of the tested compound. [moe] = 2'-O-(2-methoxyethyl) (MOE); [sp] = phosphorothioate linkage; [m5C] = 5-methylcytosine

Substance “RNA1{[moe]([m5C])[sp].[moe](T)[sp].[moe]([m5C])[sp].[moe](T)[sp].[moe]([m5C])[sp].d([m5C])[sp].d(A)[sp].d(T)[sp].d(T)[sp].d(A)[sp].d(T)[sp].d(T)[sp].d(T)[sp].d([m5C])[sp].d(T)[sp].[moe](T)[sp].[moe]([m5C])[sp].[moe](A)[sp].[moe]([m5C])}$$$$ (last 3' nucleoside missing)” displayed a 3 h FOB score of 7 score 0-7.
Next, “RNA1{[moe]([m5C])[sp].[moe](T)p.[moe](A)p.[moe](A)p.[moe]([m5C])[sp].d(T)[sp].d(G)[sp].d(G)[sp].d(T)[sp].d(T)[sp].d(T)[sp].d(G)[sp].d([m5C])[sp].[moe]([m5C])p.[moe]([m5C])p.[moe](T)[sp].[moe](T)}$$$$ (last 3' nucleoside missing)”: 7 score 0-7; “RNA1{[moe]([m5C])[sp].[moe](T)p.[moe](A)p.[moe](G)p.[moe](G)p.d(T)[sp].d(G)[sp].d(A)[sp].d(T)[sp].d(G)[sp].d(T)[sp].d(T)[sp].d(T)[sp].d([m5C])[sp].d(A)[sp].[moe](T)p.[moe](T)p.[moe](G)[sp].[moe](G)}$$$$ (last 3' nucleoside missing)”: 7 score 0-7; “RNA1{[moe]([m5C])[sp].[moe](T)p.[moe](A)p.[moe](T)p.[moe](T)[sp].d(T)[sp].d([m5C])[sp].d(T)[sp].d(T)[sp].d(T)[sp].d(G)[sp].d(T)[sp].d([m5C])[sp].[moe]([m5C])p.[moe](A)p.[moe](G)[sp].[moe](G)}$$$$ (last 3' nucleoside missing)”: 3.25 score 0-7.
For “RNA1{[moe]([m5C])[sp].[moe](T)p.[moe](A)p.[moe](T)p.[moe]([m5C])[sp].d(A)[sp].d(T)[sp].d([m5C])[sp].d(A)[sp].d(T)[sp].d(T)[sp].d(T)[sp].d(T)[sp].[moe]([m5C])p.[moe]([m5C])p.[moe](A)[sp].[moe](G)}$$$$ (last 3' nucleoside missing)”, the 3 h FOB score was 1 score 0-7.
Take “RNA1{[moe]([m5C])[sp].[moe](T)p.[moe](A)p.[moe](T)p.[moe]([m5C])p.d(A)[sp].d(T)[sp].d([m5C])[sp].d(A)[sp].d(T)[sp].d(T)[sp].d(T)[sp].d(T)[sp].d([m5C])[sp].d([m5C])[sp].[moe](A)p.[moe](G)p.[moe](G)[sp].[moe](G)}$$$$ (last 3' nucleoside missing)”: the 3 h FOB score is 1 score 0-7.
The substance “RNA1{[moe]([m5C])[sp].[moe](T)p.[moe](G)p.[moe](G)p.[moe](A)[sp].d(T)[sp].d(T)[sp].d([m5C])[sp].d(T)[sp].d(G)[sp].d(T)[sp].d(A)[sp].d([m5C])[sp].[moe](T)p.[moe](T)p.[moe](T)[sp].[moe](T)}$$$$ (last 3' nucleoside missing)” came in with a 3 h FOB score of 3.75 score 0-7.
The substance “RNA1{[moe]([m5C])[sp].[moe](T)p.[moe](G)p.[moe](G)p.[moe](A)p.[moe](T)p.d(T)[sp].d([m5C])[sp].d(T)[sp].d(G)[sp].d(T)[sp].d(A)[sp].d([m5C])[sp].d(T)[sp].d(T)[sp].d(T)[sp].[moe](T)p.[moe]([m5C])[sp].[moe](T)}$$$$ (last 3' nucleoside missing)” returned a 3 h FOB score of 1 score 0-7.
With “RNA1{[moe]([m5C])[sp].[moe](T)p.[moe](G)p.[moe](G)p.[moe](A)p.d(T)[sp].d(T)[sp].d([m5C])[sp].d(T)[sp].d(G)[sp].d(T)[sp].d(A)[sp].d([m5C])[sp].d(T)[sp].d(T)[sp].[moe](T)p.[moe](T)p.[moe]([m5C])[sp].[moe](T)}$$$$ (last 3' nucleoside missing)”, the 3 h FOB score was 5.25 score 0-7.
“RNA1{[moe]([m5C])[sp].[moe](T)p.[moe](G)p.[moe](G)p.[moe](T)p.d(T)[sp].d([m5C])[sp].d([m5C])[sp].d(T)[sp].d(T)[sp].d(A)[sp].d([m5C])[sp].d(A)[sp].d(A)[sp].d(T)[sp].[moe](T)p.[moe](A)p.[moe](T)[sp].[moe]([m5C])}$$$$ (last 3' nucleoside missing)” registered a 3 h FOB score of 1 score 0-7.
Regarding “RNA1{[moe]([m5C])[sp].[moe](T)p.[moe](G)p.[moe](G)p.d(A)[sp].d(T)[sp].d(T)[sp].d([m5C])[sp].d(T)[sp].d(G)[sp].d(T)[sp].d(A)[sp].d([m5C])[sp].d(T)[sp].[moe](T)p.[moe](T)p.[moe](T)p.[moe]([m5C])[sp].[moe](T)}$$$$ (last 3' nucleoside missing)”, the 3 h FOB score was found to be 2 score 0-7.
“RNA1{[moe]([m5C])[sp].[moe](T)p.[moe](G)p.[moe](T)p.[moe](A)[sp].d([m5C])[sp].d(T)[sp].d(T)[sp].d(T)[sp].d(T)[sp].d([m5C])[sp].d(T)[sp].d([m5C])[sp].[moe](A)p.[moe](T)p.[moe](G)[sp].[moe](T)}$$$$ (last 3' nucleoside missing)” yielded a 3 h FOB score of 3.5 score 0-7.
For “RNA1{[moe]([m5C])[sp].[moe](T)p.[moe](G)p.[moe](T)p.[moe](A)p.d([m5C])[sp].d(T)[sp].d(T)[sp].d(T)[sp].d(T)[sp].d([m5C])[sp].d(T)[sp].d([m5C])[sp].d(A)[sp].d(T)[sp].[moe](G)p.[moe](T)p.[moe](G)[sp].[moe]([m5C])}$$$$ (last 3' nucleoside missing)”, the 3 h FOB score was 1.25 score 0-7.
Next, “RNA1{[moe]([m5C])[sp].[moe](T)p.[moe](G)p.[moe](T)p.[moe](G)p.d(A)[sp].d(G)[sp].d(T)[sp].d(T)[sp].d([m5C])[sp].d(A)[sp].d([m5C])[sp].d([m5C])[sp].d(T)[sp].d(G)[sp].[moe]([m5C])p.[moe](A)p.[moe](T)[sp].[moe]([m5C])}$$$$ (last 3' nucleoside missing)”: 1 score 0-7.
Next, “RNA1{[moe]([m5C])[sp].[moe](T)p.[moe](G)p.[moe](T)p.[moe](G)p.d(T)[sp].d(A)[sp].d(T)[sp].d(T)[sp].d(T)[sp].d(T)[sp].d(T)[sp].d([m5C])[sp].d(T)[sp].d(T)[sp].[moe]([m5C])p.[moe]([m5C])p.[moe](T)[sp].[moe]([m5C])}$$$$ (last 3' nucleoside missing)”: 0 score 0-7; “RNA1{[moe]([m5C])[sp].[moe](T)p.[moe](G)p.[moe]([m5C])p.[moe](T)[sp].d(A)[sp].d(A)[sp].d([m5C])[sp].d(T)[sp].d(G)[sp].d(G)[sp].d(T)[sp].d(T)[sp].[moe](T)p.[moe](G)p.[moe]([m5C])[sp].[moe]([m5C])}$$$$ (last 3' nucleoside missing)”: 4 score 0-7; “RNA1{[moe]([m5C])[sp].[moe](T)p.[moe](G)p.[moe]([m5C])p.[moe](T)p.[moe](A)p.d(A)[sp].d([m5C])[sp].d(T)[sp].d(G)[sp].d(G)[sp].d(T)[sp].d(T)[sp].d(T)[sp].d(G)[sp].d([m5C])[sp].[moe]([m5C])p.[moe]([m5C])[sp].[moe](T)}$$$$ (last 3' nucleoside missing)”: 5.5 score 0-7.
With “RNA1{[moe]([m5C])[sp].[moe](T)p.[moe](G)p.[moe]([m5C])p.[moe](T)p.d(A)[sp].d(A)[sp].d([m5C])[sp].d(T)[sp].d(G)[sp].d(G)[sp].d(T)[sp].d(T)[sp].d(T)[sp].d(G)[sp].[moe]([m5C])p.[moe]([m5C])p.[moe]([m5C])[sp].[moe](T)}$$$$ (last 3' nucleoside missing)”, the 3 h FOB score was 6 score 0-7.
The substance “RNA1{[moe]([m5C])[sp].[moe](T)p.[moe](G)p.[moe]([m5C])p.d(T)[sp].d(A)[sp].d(A)[sp].d([m5C])[sp].d(T)[sp].d(G)[sp].d(G)[sp].d(T)[sp].d(T)[sp].d(T)[sp].[moe](G)p.[moe]([m5C])p.[moe]([m5C])p.[moe]([m5C])[sp].[moe](T)}$$$$ (last 3' nucleoside missing)” displayed a 3 h FOB score of 1 score 0-7.
“RNA1{[moe]([m5C])[sp].[moe](T)p.[moe](T)p.[moe](A)p.[moe](G)[sp].d(A)[sp].d(G)[sp].d(T)[sp].d(T)[sp].d(T)[sp].d(T)[sp].d(T)[sp].d(G)[sp].[moe]([m5C])p.[moe]([m5C])p.[moe](T)[sp].[moe](T)}$$$$ (last 3' nucleoside missing)” registered a 3 h FOB score of 6 score 0-7.
“RNA1{[moe]([m5C])[sp].[moe](T)p.[moe](T)p.[moe](A)p.[moe](G)p.[moe](A)p.d(G)[sp].d(T)[sp].d(T)[sp].d(T)[sp].d(T)[sp].d(T)[sp].d(G)[sp].d([m5C])[sp].d([m5C])[sp].d(T)[sp].[moe](T)p.[moe]([m5C])[sp].[moe]([m5C])}$$$$ (last 3' nucleoside missing)” gave a 3 h FOB score of 4.5 score 0-7.
Regarding “RNA1{[moe]([m5C])[sp].[moe](T)p.[moe](T)p.[moe](A)p.[moe](G)p.d(A)[sp].d(G)[sp].d(T)[sp].d(T)[sp].d(T)[sp].d(T)[sp].d(T)[sp].d(G)[sp].d([m5C])[sp].d([m5C])[sp].[moe](T)p.[moe](T)p.[moe]([m5C])[sp].[moe]([m5C])}$$$$ (last 3' nucleoside missing)”, the 3 h FOB score is 4 score 0-7.
“RNA1{[moe]([m5C])[sp].[moe](T)p.[moe](T)p.[moe](A)p.d(G)[sp].d(A)[sp].d(G)[sp].d(T)[sp].d(T)[sp].d(T)[sp].d(T)[sp].d(T)[sp].d(G)[sp].d([m5C])[sp].[moe]([m5C])p.[moe](T)p.[moe](T)p.[moe]([m5C])[sp].[moe]([m5C])}$$$$ (last 3' nucleoside missing)” returned a 3 h FOB score of 5.5 score 0-7.
Next, “RNA1{[moe]([m5C])[sp].[moe](T)p.[moe](T)p.[moe](G)p.[moe](T)p.d(A)[sp].d([m5C])[sp].d(T)[sp].d(T)[sp].d([m5C])[sp].d(A)[sp].d([m5C])[sp].d(A)[sp].d(T)[sp].d(T)[sp].[moe](T)p.[moe](G)p.[moe](G)[sp].[moe](A)}$$$$ (last 3' nucleoside missing)”: 2.25 score 0-7; “RNA1{[moe]([m5C])[sp].[moe](T)p.[moe](T)p.[moe](G)p.[moe](T)p.d(T)[sp].d(G)[sp].d(T)[sp].d(T)[sp].d(G)[sp].d(T)[sp].d(T)[sp].d(T)[sp].d(A)[sp].d([m5C])[sp].[moe](A)p.[moe](T)p.[moe](T)[sp].[moe](A)}$$$$ (last 3' nucleoside missing)”: 3 score 0-7.
Substance “RNA1{[moe]([m5C])[sp].[moe](T)p.[moe](T)p.[moe](T)p.[moe](T)[sp].d([m5C])[sp].d(T)[sp].d([m5C])[sp].d(A)[sp].d(T)[sp].d(G)[sp].d(T)[sp].d(G)[sp].[moe]([m5C])p.[moe](G)p.[moe](G)[sp].[moe]([m5C])}$$$$ (last 3' nucleoside missing)” showed a 3 h FOB score of 5.5 score 0-7.
